Laboratory results as given in ChEMBL document CHEMBL6114967, “Design and synthesis of novel sulfur-substituted triptolide with the ability to induce autophagy through inhibition of SRSF1 expression” (Eur J Med Chem, 2025).
Active and inactive are the calls of the source. No cut-off for these calls is given here.

What was measured:
[1] = tested on: HGC-27; test: Downregulation of SRSF1 mRNA expression in human HGC-27 cells incubated for 24 hrs by SYBR green dye based RT-qPCR analysis; assay type: functional, cell-based; settings: dose 0.5-2 µM
[2] = tested on: HepG2; test: Antiproliferative activity against human HepG2 cells assessed as inhibition of cell proliferation incubated for 72 hrs by MTT assay; assay type: functional, cell-based; settings: HepG2, 72 h
[3] = tested on: MCF7; test: Antiproliferative activity against human MCF7 cells assessed as inhibition of cell proliferation incubated for 72 hrs by MTT assay; assay type: functional, cell-based; settings: MCF7, 72 h
[4] = tested on: A549; test: Antiproliferative activity against human A549 cells assessed as inhibition of cell proliferation incubated for 72 hrs by MTT assay; assay type: functional, cell-based; settings: A549, 72 h
[5] = tested on: B16-F10; test: Antiproliferative activity against mouse B16-F10 cells assessed as inhibition of cell proliferation incubated for 72 hrs by MTT assay; assay type: functional, cell-based; settings: B16-F10, 72 h
[6] = Antiproliferative activity against human LO2 cells assessed as inhibition of cell proliferation incubated for 72 hrs by MTT assay; assay type: toxicity, cell-based, L02
[7] = Selectivity index, ratio of IC50 for antiproliferative activity against human LO2 cells to IC50 for antiproliferative activity against human HGC-27 cells; assay type: toxicity, cell-based; settings: LO2 cells and HGC-27 cells, read-out: Ratio IC50
[8] = Selectivity index, ratio of IC50 for antiproliferative activity against human LO2 cells to IC50 for antiproliferative activity against human AGS cells; assay type: cell-based; settings: LO2 cells and AGS cells, read-out: Ratio IC50
[9] = tested on: HGC-27; test: Induction of apoptosis in human HGC-27 cells assessed as early apoptotic cells at 0.5 uM incubated for 48 hrs by annexin V-FITC and PI staining based flow cytometry analysis (reference value: 3.13%); assay type: functional
[10] = tested on: HGC-27; test: Induction of apoptosis in human HGC-27 cells assessed as necrotic cells at 0.5 uM incubated for 48 hrs by annexin V-FITC and PI staining based flow cytometry analysis (reference value: 0.062%); assay type: functional
[11] = tested on: HGC-27; test: Induction of apoptosis in human HGC-27 cells assessed as viable cells at 1 uM incubated for 48 hrs by annexin V-FITC and PI staining based flow cytometry analysis (reference value: 91.8%); assay type: functional; settings: read-out: Activity
[12] = tested on: HGC-27; test: Induction of apoptosis in human HGC-27 cells assessed as viable cells at 2 uM incubated for 48 hrs by annexin V-FITC and PI staining based flow cytometry analysis (reference value: 91.8%); assay type: functional; settings: read-out: Activity
[13] = tested on: HGC-27; test: Induction of apoptosis in human HGC-27 cells assessed as necrotic cells at 2 uM incubated for 48 hrs by annexin V-FITC and PI staining based flow cytometry analysis (reference value: 0.062%); assay type: functional
[14] = tested on: AGS; test: Induction of apoptosis in human AGS cells assessed as early apoptotic cells at 0.5 uM incubated for 48 hrs by annexin V-FITC and PI staining based flow cytometry analysis (reference value: 4.44%); assay type: functional
[15] = tested on: AGS; test: Induction of apoptosis in human AGS cells assessed as late apoptotic cells at 0.5 uM incubated for 48 hrs by annexin V-FITC and PI staining based flow cytometry analysis (reference value: 3.15%); assay type: functional
[16] = tested on: AGS; test: Induction of apoptosis in human AGS cells assessed as viable cells at 2 uM incubated for 48 hrs by annexin V-FITC and PI staining based flow cytometry analysis (reference value: 92.0%); assay type: functional; settings: read-out: Activity
[17] = tested on: AGS; test: Induction of apoptosis in human AGS cells assessed as necrotic cells at 2 uM incubated for 48 hrs by annexin V-FITC and PI staining based flow cytometry analysis (reference value: 0.44%); assay type: functional
[18] = tested on: AGS; test: Downregulation of Bcl-xl expression in human AGS cells at 0.5 to 2 uM incubated overnight by Western blotting analysis; assay type: functional, cell-based; settings: dose 0.5-2 µM
[19] = tested on: AGS; test: Induction of apoptosis in human AGS cells assessed as increase in cleaved PARP expression at 0.5 to 2 uM incubated overnight by Western blotting analysis; assay type: functional, cell-based; settings: dose 0.5-2 µM
[20] = tested on: AGS; test: Induction of apoptosis in human AGS cells assessed as increase in cleaved caspase-3 expression at 0.5 to 2 uM incubated overnight by Western blotting analysis; assay type: functional, cell-based; settings: dose 0.5-2 µM
[21] = tested on: HGC-27; test: Induction of cell cycle arrest in human HGC-27 cells assessed as increase in P21 expression at 0.5 to 2 uM by Western blotting analysis; assay type: functional, cell-based; settings: dose 0.5-2 µM
[22] = tested on: AGS; test: Induction of cell cycle arrest in human AGS cells assessed as reduction in CyclinE2 expression at 0.5 to 2 uM by Western blotting analysis; assay type: functional, cell-based; settings: dose 0.5-2 µM
[23] = tested on: HGC-27; test: Antitumor activity against human HGC-27 cells xenografted in male BALB/c nude mouse assessed as tumor growth inhibition at 100 mg/kg, ip administered every day for 15 days relative to control; assay type: functional; settings: HGC-27, 360 h, time 15 day, read-out: TGI
[24] = Toxicity in male BALB/c nude mouse assessed as change in body weight at 25 to 100 mg/kg, ip administered daily and measured after 15 days; assay type: organism-based; settings: in vivo, 360 h, dose 25-100 mg/kg, time 15 day
[25] = tested on: HGC-27; test: Downregulation of SRSF1 mRNA expression in human HGC-27 cells at 2 uM incubated for 24 hrs; assay type: functional, cell-based
[26] = tested on: AGS; test: Downregulation of SRSF1 protein level in human AGS cells at 0.5 to 2 uM by Western blotting analysis; assay type: functional, cell-based; settings: dose 0.5-2 µM
[27] = tested on: HGC-27; test: Downregulation of Bcl-xl protein level in human HGC-27 cells at 0.5 to 2 uM by Western blotting analysis; assay type: functional, cell-based; settings: dose 0.5-2 µM
[28] = tested on: HGC-27; test: Induction of autophagy in human HGC-27 cells assessed as upregulation of Beclin1 protein level at 0.5 to 2 uM incubated for 48 hrs by Western blotting analysis; assay type: functional, cell-based; settings: dose 0.5-2 µM
[29] = tested on: HGC-27; test: Induction of autophagy in human HGC-27 cells assessed as upregulation of LC3 II protein level at 0.5 to 2 uM incubated for 48 hrs by Western blotting analysis; assay type: functional, cell-based; settings: dose 0.5-2 µM
[30] = tested on: AGS; test: Induction of autophagy in human AGS cells assessed as upregulation of LC3 II protein level at 0.5 to 2 uM incubated for 48 hrs by Western blotting analysis; assay type: functional, cell-based; settings: dose 0.5-2 µM
[31] = tested on: AGS; test: Induction of autophagy in human AGS cells assessed as upregulation of LC3 I protein level at 0.5 to 2 uM incubated for 48 hrs by Western blotting analysis; assay type: functional, cell-based; settings: dose 0.5-2 µM
[32] = tested on: HGC-27; test: Induction of autophagy in human HGC-27 cells assessed as downregulation of P62 protein level at 0.5 to 2 uM incubated for 48 hrs by Western blotting analysis; assay type: functional, cell-based; settings: dose 0.5-2 µM
[33] = tested on: AGS; test: Induction of autophagy in human AGS cells assessed as downregulation of P62 protein level at 0.5 to 2 uM incubated for 48 hrs by Western blotting analysis; assay type: functional, cell-based; settings: dose 0.5-2 µM
[34] = Toxicity in male ICR mouse assessed as body weight gain at 1 g/Kg, ip measured after 7 days; assay type: organism-based; settings: in vivo, 1000 mg/kg, 168 h, time 7 day
[35] = Acute toxicity in male ICR mouse assessed as lethal dose administered as ip; settings: in vivo
[36] = tested on: HGC-27; test: Induction of autophagy in human HGC-27 cells assessed as decrease in P62 protein level in tumor tissue at 25 to 100 mg/kg, ip administered daily; assay type: functional, organism-based; settings: dose 25-100 mg/kg
[37] = tested on: HGC-27; test: Induction of autophagy in human HGC-27 cells assessed as increase in green fluorescent number co-treated with chloroquine at 2 uM incubated for 48 hrs by DAPI staining based immunofluorescence analysis; assay type: functional, cell-based

In the case of `CC(C)[C@]12O[C@H]1[C@@H]1O[C@]13[C@]1(O[C@H]1C[C@H]1C4=C(CC[C@@]13C)C(=S)OC4)[C@@H]2O`, the Activity [1] is reported as “Dose-dependent-effect”, the IC50 [2] is reported as 0.35 µM and the IC50 [3] is reported as 0.76 µM. For the same molecule, the IC50 [4] was 6.93 µM, the IC50 [5] was 0.33 µM and the IC50 at 72 h [6] was 2.86 µM. For the same molecule, the selectivity ratio [7] was 6.56, the selectivity ratio [8] was 4.55 and the Activity [9] was 3.5%. For the same molecule, the Activity [10] was 0.13%, the viability at 1 µM [11] was 84.5% and the viability at 2 µM [12] was 52%. It also gave an Activity [13] of 0.16%, an Activity [14] of 9.27% and an Activity [15] of 7.89%. The viability at 2 µM [16] was 35.9%, the Activity [17] was 0.82% and the Activity [18] was “Active”. For the same molecule, the Activity [19] was “Active”, the Activity [20] was “Active” and the Activity [21] was “Active”. The Activity [22] was “Active”, the inhibition in vivo at 100 mg/kg [23] was 82.7% and the Activity [24] was “Non-toxic”. The Activity [25] was “Active”, the Activity [26] was “Active” and the Activity [27] was “Active”. The Activity [28] was “Active”, the Activity [29] was “Active” and the Activity [30] was “Active”. For the same molecule, the Activity [31] was “Active”, the Activity [32] was “Active” and the Activity [33] was “Active”. The Activity [34] was “Non-toxic”, the LD50 [35] was greater than 1000 mg/kg and the Activity [36] was “Active”. For the same molecule, the Activity [37] was “Active”.
